Reference: paper PMC3898987 (Bioorganic & Medicinal Chemistry, 2013)
Residue numbers refer to the chain shown, from its start. Several values for one entry are separate records, joined by “and”; a condition that tells them apart may be missing. Identical values can stand only once.

Columns and labels:
WT 5-HT3A receptor = target: T1, WT 5-HT3A receptor (Homo sapiens, UniProt P46098); test: FlexStation membrane potential dye functional assay, HEK293 cells; format: cell-based; set-up: expressed in transfected cells; host or cells: HEK293
T1 sequence (P46098 24-478): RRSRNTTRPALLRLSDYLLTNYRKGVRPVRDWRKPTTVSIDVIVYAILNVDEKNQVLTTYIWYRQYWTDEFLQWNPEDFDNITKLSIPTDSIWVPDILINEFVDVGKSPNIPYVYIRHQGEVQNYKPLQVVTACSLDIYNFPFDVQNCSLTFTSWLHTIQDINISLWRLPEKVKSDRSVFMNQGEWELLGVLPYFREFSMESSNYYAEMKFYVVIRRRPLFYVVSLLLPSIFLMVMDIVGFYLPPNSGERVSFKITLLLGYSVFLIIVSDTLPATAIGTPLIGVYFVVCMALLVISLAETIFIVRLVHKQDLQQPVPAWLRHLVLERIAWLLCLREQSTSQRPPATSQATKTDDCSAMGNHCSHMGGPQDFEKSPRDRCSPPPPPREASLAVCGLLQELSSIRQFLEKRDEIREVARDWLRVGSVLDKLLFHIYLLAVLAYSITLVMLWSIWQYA
Experimental: (§1) Human embryonic kidney (HEK) 293 cells were cultured on 90 mm tissue culture plates at 37 °C and 7% CO2 in a humidified atmosphere. They were grown in DMEM:F12 (Dulbecco’s Modified Eagle’s Medium/Nutrient Mix F12 (1:1)) with GlutaMAX I™ containing 10% fetal calf serum and passaged when confluent. […] For FlexStation assays, transfected cells were plated on 96-well plates and incubated 1–2 days before assay.
(§2) Fluorometric studies were undertaken using a FlexStation® (Molecular Devices, Sunnyvale, CA, USA) as previously described.[11]
(§3) Fluorescence was measured every 2 s for 200 s. […] Concentration–response and inhibition curves were obtained for each mutant, and the fluorescence values were normalized to the maximal response.

5-HT3A receptor S163A = target: T2, 5-HT3A receptor S163A (Homo sapiens, UniProt P46098, S158A); test: as above; format: cell-based; set-up: expressed in transfected cells; host or cells: HEK293; settings: 5-HT3A S163A
T2 sequence (P46098 24-478 S158A): T1 sequence (P46098 24-478) with S135A
Experimental: as §1, §2, §3

5-HT3A receptor Y73F = target: T3, 5-HT3A receptor Y73F (Homo sapiens, UniProt P46098, Y68F); test: as above; format: cell-based; set-up: expressed in transfected cells; host or cells: HEK293; settings: 5-HT3A Y73F
T3 sequence (P46098 24-478 Y68F): T1 sequence (P46098 24-478) with Y45F
Experimental: as §1, §2, §3

[1] = target: T4, 5-HT3AB receptor, 5-HT3B subunit H73A (Homo sapiens, UniProt O95264+P46098, H66A); test: as above; settings: 5-HT concentration-response, 5-HT3AB with 5-HT3B H73A
T4 sequence (P46098 24-478): T1 sequence (P46098 24-478)
T4 sequence (O95264 22-441 H66A): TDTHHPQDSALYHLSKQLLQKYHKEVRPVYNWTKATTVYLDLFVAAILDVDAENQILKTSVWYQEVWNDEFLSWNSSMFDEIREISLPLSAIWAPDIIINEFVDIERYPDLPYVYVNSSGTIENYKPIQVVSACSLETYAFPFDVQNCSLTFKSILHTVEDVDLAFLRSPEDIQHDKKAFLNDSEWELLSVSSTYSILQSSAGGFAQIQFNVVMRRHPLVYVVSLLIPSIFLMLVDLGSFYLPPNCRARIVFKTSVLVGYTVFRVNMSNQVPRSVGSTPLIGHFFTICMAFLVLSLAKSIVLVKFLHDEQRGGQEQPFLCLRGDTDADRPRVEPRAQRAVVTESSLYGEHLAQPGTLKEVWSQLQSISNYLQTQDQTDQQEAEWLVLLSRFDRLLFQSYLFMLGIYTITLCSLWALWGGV
Experimental: as §1, §2, §3

5-HT3A receptor D165K = target: T5, 5-HT3A receptor D165K (Homo sapiens, UniProt P46098, D160K); test: radioligand saturation binding, transfected HEK293 membranes; settings: [3H]-palonosetron saturation, 5-HT3A D165K, 4 °C, 24 h
T5 sequence (P46098 24-478 D160K): T1 sequence (P46098 24-478) with D137K
Experimental: Human embryonic kidney (HEK) 293 cells were cultured on 90 mm tissue culture plates at 37 °C and 7% CO2 in a humidified atmosphere. They were grown in DMEM:F12 (Dulbecco’s Modified Eagle’s Medium/Nutrient Mix F12 (1:1)) with GlutaMAX I™ containing 10% fetal calf serum and passaged when confluent. For radioligand binding studies, cells in 90 mm dishes were transfected at 60–70% confluency using polyethyleneimine and incubated for 3–4 days before use. For FlexStation assays, transfected cells were plated on 96-well plates and incubated 1–2 days before assay. […]
Eight-point binding assays were performed to produce saturation binding curves. […] Radioactive counts were measured using a Beckman LS6000SC liquid scintillation counter (Fullerton, California, USA).
Data were analyzed by iterative curve fitting using GraphPad Prism v5 (San Diego, CA) according to the following equation: B=Bmax[L]^n/kdn+[L]^n where B is the amount of bound radioligand, Bmax is the maximum specific binding at equilibrium, [L] is the concentration of radioligand, Kd is the equilibrium dissociation constant of the radioligand, and n is the Hill coefficient.

[2] = inhibition of 5-HT (EC50 concentration) response, 45 min preincubation

`NCCc1c[nH]c2ccc(O)cc12` [5-HT, serotonin] was tested, and the “Hill Coefficient” value (WT 5-HT3A receptor; 5-HT concentration-response) was 2.3 and 2.3 ± 0.2, the “Hill Coefficient” value (5-HT3A receptor S163A; 5-HT concentration-response) was 3.8 ± 0.4 and the “Hill Coefficient” value (5-HT3A receptor Y73F; 5-HT concentration-response) was 2.3 ± 0.3. The “Hill Coefficient” value [1] was 1.6 ± 0.2.
For `O=C1c2cccc3c2[C@H](CCC3)CN1[C@@H]1CN2CCC1CC2` [Palonosetron], the IC50 (WT 5-HT3A receptor; [2]) was 0.83 ± 0.49 nM, the IC50 (5-HT3A receptor S163A; [2]) was 1.57 ± 0.12 nM and the IC50 (5-HT3A receptor Y73F; [2]) was 1.23 ± 0.15 nM. For the same compound, the Kd (5-HT3A receptor D165K) was 0.36 ± 0.02 nM.
